# Patent publication US4230719A, “Novel 2-[4-(3-methyl-2-thienyl)phenyl]propionic acid and pharmaceutically acceptable salt thereof and method for treating symptoms of inflammation and pain” (Toyama Chemical Co., Ltd., priority 1977, dated 1980)
# Like-named read-outs stand apart in the source and are kept apart here.
# Tests used:
# [1] = tested on: threshold value of pain due to pressure stimuli (tail); settings: for Analgesic effect: 100% = threshold raised by 160 g; for ED50: Mus musculus, po
# Vascular permeability [2] = assay: Vascular permeability in mice (Whittle's method); type: in vivo, mouse (ddY strain, male); settings: for Inhibition: dye leakage; for ED30: po
# Experimental: (i) Vascular permeability in mice (Whittle's method)
# The test compound was orally administered to each ddY strain male mouse (weighing each about 20 g). After 20 minutes, 0.1 ml/10 g of a 4%(Wt/V) solution of Pontamine Sky Blue in physiological saline was intravenously injected and 10 minutes thereafter 0.1 ml/10 g of a 0.7%(V/V) solution of acetic acid in physiological saline was injected intraperitoneally. After 30 minutes, the mice were killed by suffocation with chloroform. After immediate laparotomy, the dye leaked into the peritoneal cavity was washed out with distilled water. The washings were made up with water to 30 ml and the absorbance at 620 mμ was measured. The amount of leaked dye per 20 g of mouse weight was compared.
# [3] = tested on: Carrageenin-induced edema; assay: Carrageenin-induced edema; type: in vivo, rat (Donryu strain, male); settings: Rattus norvegicus, po, read-out: Inhibitory percent of swelling; for inhibition in vivo at 15 mg/kg: 15 mg/kg p.o.
# Experimental: (iii) Carrageenin-induced edema
# Each of the 6 Donryu strain male rats per group (each weighing about 140 g), which had been fasted overnight, was orally loaded with 4 ml of water and, after 30 minutes, the test compound was orally administered thereto. Thirty minutes thereafter, a 1%(Wt/V) solution of carrageenin in physiological saline was subcutaneously injected into the subplantar region of the left hind paw. At a time interval of one hour, starting from the end of the first hour till the end of the fifth hour after injection of carrageenin, the paw volume was measured by means of a manometer and pressure transducer. By comparison with the percent increase in swelling of the control group of rats to which a 0.5%(V/V) solution of Tween 80 had been administered, the mean inhibitory percent in 5 hours of swelling was calculated by the following equation: [formula]
# in vivo = settings: rat, po
# [4] = tested on: phenylbenzoquinone writhing; assay: Analgesic activity, phenylbenzoquinone method in mouse; type: in vivo, mouse (ddY strain, male); settings: for Frequency of writhing, mean ± S.E.: during 10 minutes
# Experimental: (i) Phenylbenzoquinone method in mouse
# The test compound was orally administered to each ddY strain male mouse (weighing 22±2 g; 8 mice per group). […] The frequency of writhing during 10 minutes from 5-minutes after the injection of phenylbenzoquinone was measured and compared with that of a control group to which a 0.5% Tween 80 solution was administered. The percent inhibition was calculated by the following equation: [formula]
# [5] = tested on: fever (Mycobacterium butyricum); assay: Antipyretic action; type: in vivo, rat (Wistar strain, female)
# Experimental: A suspension (0.6 mg/0.1 ml) of killed and dried Mycobacterium butyricum in liquid paraffin was subcutaneously injected in an amount of 0.1 ml into the subplantar region of the hind paw of each Wistar strain female rat weighing about 180 g. After 14 hours, the fevered rats were divided into groups, and each test compound was orally administered to each group to examine the antipyretic effect.
# [6] = tested on: pain threshold (brewer's yeast, hind paw); assay: Analgesic activity, Randall-Selitto method in rat; type: in vivo, rat (Wistar strain, male); settings: for Inhibition: 100% = pain threshold raised by 150 g
# Experimental: (ii) Randall-Selitto method in rat
# After one hour, the test compound was orally administered. One hour thereafter, the pain threshold value was measured four times at a time interval of one hour. The mean value of four values obtained was taken as the pain threshold value of each group of rats. The activity of the drug was assumed to be 100% when the pain threshold value was raised by 150 g.
# [7] = tested on: Phenol Red (PSP) excretion; assay: Uricosuric action (a), inhibition of Phenol Red (PSP) excretion; type: in vivo, rabbit (male); settings: dose not stated
# Experimental: (a) The action was examined by the method of B. B. Brodie et al. who reported that the inhibitory action on Phenol Red (PSP) excretion correlates with the uricosuric action [Proc. Soc. Exp. Biol. Med., 86, 884 (1954)]. To a male rabbit weighing 2 to 3 kg was intraperitoneally administered the test compound. After 30 minutes, 75 mg/kg of a Phenol Red suspension was injected into the pinna vein of the rabbit and 30 minutes thereafter a blood sample was drawn from the pinna vein. The blood sample was centrifuged and the serum was diluted with physiological saline. The diluted serum was treated with 0.1 N NaOH to develop the color. The concentration of Phenol Red in the serum was determined from the absorbance at 560 mμ.
# Vascular permeability [8] = assay: Vascular permeability in rat (Whittle's method); type: in vivo, rat (Wistar strain, male)
# Experimental: (ii) Vascular permeability in rat (Whittle's method)
# The test compound was orally administered to each Wistar strain male rat (weighing about 150 g) which had been fasted overnight. After 55 minutes, 0.5 ml of a 0.5% Evans Blue solution was intravenously injected. Five minutes thereafter, 0.2 ml/100 g of a 3%(V/V) acetic acid solution was intraperitoneally injected. After 60 minutes from the injection of the acetic acid solution, the rats were killed by suffocation with chloroform. After immediate laparotomy, the dye leaked into the peritoneal cavity was washed out with physiological saline. The washings were made up with the saline to 30 ml and the absorbance at 640 mμ was measured to examine the effect of the test compounds by comparing the amounts of leaked dye per rat with one another.
# [9] = Mus musculus, po, 10 min, writhing, 20 mg/kg p.o., read-out: Inhibition
# [10] = Mus musculus, po, 10 min, writhing, 40 mg/kg p.o.
# [11] = Mus musculus, po, 10 min, read-out: Inhibition
smiles,measurement,setting,value
CC(=O)Oc1ccccc1C(=O)O [Aspirin],Analgesic effect,[1]; 200 mg/kg p.o.,25%
same,Analgesic effect,[1]; 800 mg/kg p.o.,53%
same,ED50,[1],710 mg/kg
CCc1ccsc1-c1ccc(C(C)C(=O)O)cc1 (stereo not shown) [Compound C1],Dye leakage (P.S.B.) mean ± S.E.,Vascular permeability [2]; 10 mg/kg p.o.,316.9 ± 29.0 μg/20g
same,Dye leakage (P.S.B.) mean ± S.E.,Vascular permeability [2]; 20 mg/kg p.o.,245.9 ± 15.4 μg/20g
same,Inhibition,Vascular permeability [2]; 10 mg/kg p.o.,18.0%
same,Inhibition,Vascular permeability [2]; 20 mg/kg p.o.,36.4%
same,ED30,"Vascular permeability [2]; mouse, read-out: ED30",16 mg/kg
same,inhibition in vivo at 5 mg/kg,"[3]; 5 mg/kg p.o., mean in 5 hours",9.3%
same,LD50,in vivo,> 400 mg/kg
same,"Frequency of writhing, mean ± S.E.",[4]; 10 mg/kg p.o.,23.6 ± 5.0
same,"Frequency of writhing, mean ± S.E.",[4]; 20 mg/kg p.o.,23.7 ± 4.4
same,"Frequency of writhing, mean ± S.E.",[4]; 40 mg/kg p.o.,23.1 ± 3.9
same,inhibition in vivo at 10 mg/kg,"[4]; Mus musculus, po, 10 min, writhing, 10 mg/kg p.o., read-out: Inhibition",0%
same,inhibition in vivo at 20 mg/kg,[4]; [9],-0.4%
same,inhibition in vivo at 40 mg/kg,[4]; [10],2.1%
same,ED50,"[4]; po, mouse, read-out: ED50",> 50 mg/kg
CCCc1ccsc1-c1ccc(C(C)C(=O)O)cc1 (stereo not shown) [Compound C4],inhibition in vivo at 5 mg/kg,"[3]; 5 mg/kg p.o., mean in 5 hours",-7.2%
same,inhibition in vivo at 15 mg/kg,[3]; mean in 5 hours,-2.7%
same,"Frequency of writhing, mean ± S.E.",[4]; 40 mg/kg p.o.,24.0 ± 2.6
same,inhibition in vivo at 40 mg/kg,[4]; [10],-1.7%
same,ED50,"[4]; po, mouse, read-out: ED50",> 50 mg/kg
Cc1csc(-c2ccc(C(C)C(=O)O)cc2)c1 (stereo not shown) [Compound C5],inhibition in vivo at 3 mg/kg,"[3]; 3 mg/kg p.o., mean in 5 hours",-25.7%
same,inhibition in vivo at 10 mg/kg,"[3]; 10 mg/kg p.o., mean in 5 hours",0.7%
same,"Frequency of writhing, mean ± S.E.",[4]; 40 mg/kg p.o.,23.4 ± 1.9
same,inhibition in vivo at 40 mg/kg,[4]; [10],0.8%
same,ED50,"[4]; po, mouse, read-out: ED50",> 50 mg/kg
Cc1ccc(-c2ccc(C(C)C(=O)O)cc2)s1 (stereo not shown) [Compound C6],inhibition in vivo at 5 mg/kg,"[3]; 5 mg/kg p.o., mean in 5 hours",19.1%
same,inhibition in vivo at 15 mg/kg,[3]; mean in 5 hours,31.4%
same,"Frequency of writhing, mean ± S.E.",[4]; 40 mg/kg p.o.,18.2 ± 2.8
same,inhibition in vivo at 40 mg/kg,[4]; [10],22.9%
same,ED50,"[4]; po, mouse, read-out: ED50",> 50 mg/kg
Cc1cc(-c2ccc(C(C)C(=O)O)cc2)sc1C (stereo not shown) [Compound C7],inhibition in vivo at 5 mg/kg,"[3]; 5 mg/kg p.o., mean in 5 hours",-21.6%
same,inhibition in vivo at 15 mg/kg,[3]; mean in 5 hours,15.1%
same,"Frequency of writhing, mean ± S.E.",[4]; 40 mg/kg p.o.,19.1 ± 3.8
same,inhibition in vivo at 40 mg/kg,[4]; [10],19.1%
same,ED50,"[4]; po, mouse, read-out: ED50",> 50 mg/kg
CC(C(=O)O)c1ccc(-c2ccc(Cl)s2)cc1 (stereo not shown) [Compound C8],inhibition in vivo at 5 mg/kg,"[3]; 5 mg/kg p.o., mean in 5 hours",17%
same,inhibition in vivo at 15 mg/kg,[3]; mean in 5 hours,41.9%
same,"Frequency of writhing, mean ± S.E.",[4]; 20 mg/kg p.o.,17.5 ± 4.2
same,"Frequency of writhing, mean ± S.E.",[4]; 40 mg/kg p.o.,6.3 ± 0.6
same,inhibition in vivo at 20 mg/kg,[4]; [9],25.8%
same,inhibition in vivo at 40 mg/kg,[4]; [10],73.3%
same,ED50,"[4]; po, mouse, read-out: ED50",27 mg/kg
O=C(O)Cc1ccc(-c2cccs2)cc1 [Compound C9],inhibition in vivo at 5 mg/kg,"[3]; 5 mg/kg p.o., mean in 5 hours",15.1%
same,inhibition in vivo at 15 mg/kg,[3]; mean in 5 hours,24.1%
same,"Frequency of writhing, mean ± S.E.",[4]; 40 mg/kg p.o.,13.9 ± 1.6
same,inhibition in vivo at 40 mg/kg,[4]; [10],41.1%
same,ED50,"[4]; po, mouse, read-out: ED50",> 40 mg/kg
CC(C)Cc1ccc(C(C)C(=O)O)cc1 (stereo not shown) [Ibuprofen],Analgesic effect,[1]; 20 mg/kg p.o.,36%
same,Analgesic effect,[1]; 80 mg/kg p.o.,60%
same,ED50,[1],44.5 mg/kg
COc1ccc2c(c1)c(CC(=O)O)c(C)n2C(=O)c1ccc(Cl)cc1 [Indomethacin],Mean decrease in temp.,[5]; 0.2 mg/kg p.o.,0.25 °C
same,Mean decrease in temp.,[5]; 1 mg/kg p.o.,0.87 °C
same,Mean decrease in temp.,[5]; 5 mg/kg p.o.,1.35 °C
same,ED1.0,"[5]; Rattus norvegicus, po",1.06 mg/kg
same,Inhibition,[6]; 1 mg/kg p.o.,27.4%
same,Inhibition,[6]; 5 mg/kg p.o.,41.6%
same,Inhibition,[6]; 25 mg/kg p.o.,75.6%
same,ED50,"[6]; Rattus norvegicus, po",6.3 mg/kg
same,Uricosuric action (in words),[7],very weak
same,Analgesic effect,[1]; 5 mg/kg p.o.,44%
same,Analgesic effect,[1]; 20 mg/kg p.o.,80%
same,ED50,[1],6 mg/kg
same,Dye leakage (P.S.B.) mean ± S.E.,Vascular permeability [2]; 5 mg/kg p.o.,240.5 ± 25.9 μg/20g
same,Dye leakage (P.S.B.) mean ± S.E.,Vascular permeability [2]; 10 mg/kg p.o.,204.5 ± 17.6 μg/20g
same,Dye leakage (P.S.B.) mean ± S.E.,Vascular permeability [2]; 20 mg/kg p.o.,176.4 ± 17.0 μg/20g
same,ED30,Vascular permeability [2]; Mus musculus,6.8 mg/kg
same,Inhibition,Vascular permeability [2]; 5 mg/kg p.o.,25.0%
same,Inhibition,Vascular permeability [2]; 10 mg/kg p.o.,36.3%
same,Inhibition,Vascular permeability [2]; 20 mg/kg p.o.,45.0%
same,inhibition in vivo at 1 mg/kg,[3]; 5 h,6.4%
same,inhibition in vivo at 5 mg/kg,[3]; 5 h,46.2%
same,LD50,in vivo,16.2 mg/kg
same,Inhibition,Vascular permeability [8]; 0.5 mg/kg p.o.,20.7%
same,Inhibition,Vascular permeability [8]; 1 mg/kg p.o.,32.5%
same,Inhibition,Vascular permeability [8]; 5 mg/kg p.o.,47.7%
same,ED30,"Vascular permeability [8]; Rattus norvegicus, po",1 mg/kg
same,"Frequency of writhing, mean ± S.E.",[4]; 5 mg/kg p.o.,13.8 ± 2.9
same,"Frequency of writhing, mean ± S.E.",[4]; 10 mg/kg p.o.,9.1 ± 3.1
same,"Frequency of writhing, mean ± S.E.",[4]; 20 mg/kg p.o.,5.4 ± 2.1
same,ED50,"[4]; Mus musculus, po",7 mg/kg
same,inhibition in vivo at 5 mg/kg,[4]; [11],41.5%
same,inhibition in vivo at 10 mg/kg,[4]; [11],61.4%
same,inhibition in vivo at 20 mg/kg,[4]; [11],77.1%
CC(C(=O)O)c1cccc(C(=O)c2ccccc2)c1 (stereo not shown) [Ketoprofen],Analgesic effect,[1]; 10 mg/kg p.o.,40%
same,Analgesic effect,[1]; 40 mg/kg p.o.,61%
same,ED50,[1],19.5 mg/kg
